Source: PMC6522510 (Nature Communications, 2019)
Where two headings read alike, the source gives them in different places.

Assays:
Set-up in all cases: species or system AML cell lines (8); Primary HTS, single concentration about 10 uM, Cell Titer Glo viability; log10 luminescence, per cent inhibition relative to cycloheximide control
Conditions in all cases: 72 h, relative to cycloheximide control, log10 luminescence, inhibitor
M07e = tested on: M07e
U937 = tested on: U937
MOLM-13 = tested on: MOLM-13
CMS = tested on: CMS
CHRF288-11 = tested on: CHRF288-11
ML-2 = tested on: ML-2
CMK = tested on: CMK
MV4-11 = tested on: MV4-11

Structure (SMILES)	M07e %inh (M07e) [%]	U937 %inh (U937) [%]	MOLM-13 %inh (MOLM-13) [%]	CMS %inh (CMS) [%]	CHRF288-11 %inh (CHRF288-11) [%]	ML-2 %inh (ML-2) [%]	CMK %inh (CMK) [%]	MV4-11 %inh (MV4-11) [%]	M07e %inh (M07e; M07e %inh, 10 µM) [%]	U937 %inh (U937; U937 %inh, 10 µM) [%]	MOLM-13 %inh (MOLM-13; MOLM-13 %inh, 10 µM) [%]	CMS %inh (CMS; CMS %inh, 10 µM) [%]	CHRF288-11 %inh (CHRF288-11; CHRF288-11 %inh, 10 µM) [%]	ML-2 %inh (ML-2; ML-2 %inh, 10 µM) [%]	CMK %inh (CMK; CMK %inh, 10 µM) [%]	MV4-11 %inh (MV4-11; MV4-11 %inh, 10 µM) [%]
NC(=O)c1cc(-c2ccncc2)cc(-c2ccccc2)c1N [SJ000573082-1, R11976/162/1]	-1.265	14.29	11	3.949	4.55	-0.3373	2.399	10.06								
CC1=C(C(=O)Nc2ccc3[nH]ncc3c2)C(c2ccc(F)cc2)N=C(c2ccc(C(F)(F)F)nc2)N1 (stereo not drawn) [SJ000573083-1, GW204431-043A1]	0.1515	-1.3	1.317	-1.221	5.88	3.386	6.755	0.5281								
NS(=O)(=O)c1ccc(-c2cc3ccncc3cc2OCc2ccccc2)cc1 [SJ000573084-1, R12606/136/38]	5.451	0.3678	2.161	4.611	3.946	1.187	-0.9682	-2.181								
CCCNc1cccc(-n2ncc3c(N/N=C/c4ccncc4)ncnc32)c1 [SJ000573085-1, U17680/65/1]	4.312	-0.2236	-1.209	0.7041	2.576	-0.9551	0.2304	-0.4908								
CN1CCC(C(=O)Nc2n[nH]c3nc(-c4ccc(O)cc4)c(Br)cc23)CC1 [SJ000573086-1, RW100084-040A1 | AN100368-077A1]									88.26	86.11	112.8	85	69.8	63.69	70.81	81.01
CN1CCC(C(=O)Nc2n[nH]c3nc(-c4ccc(O)cc4)c(Br)cc23)CC1 [SJ000573086-2, RW100084-040A1 | AN100368-077A1]									63.44	85.17	108.5	94.2	68.5	61.94	69.83	86.37
CCC(=O)Nc1ccc(C)c(-c2ccc(C(=O)NCC3CC3)cc2)c1 [SJ000573087-1, R7387/20/4]	5.006	1.348	6.641	2.476	3.258	-0.3215	1.803	5.047								
COc1ccc(-c2ccc3c(NC(=O)C4CC4)n[nH]c3n2)cc1 [SJ000573088-1, BS100048-058B1]	-1.122	1.777	4.236	-1.884	-3.869	1.731	5.626	-0.1427								
CN1CCN(Cc2ccc(-c3cc4ncnc(Nc5ccc(OCc6cccc(F)c6)c(Cl)c5)c4s3)o2)CC1 [SJ000573089-1, U17540/68/2]	-2.246	9.435	4.975	6.304	89.11	-0.8811	14.44	5.617								
COc1cc2ncnc(Nc3ccc(C)c(O)c3)c2cc1OC [SJ000573090-1, U13103/179/1]	-0.2224	0.4968	7.874	0.3431	0.5463	-3.545	1.416	0.6335								
Cc1cc(O)cc(C)c1/C=C/c1cncc(C(=O)OC(C)(C)C)c1 [SJ000573091-1, U11962/36/1]	-1.025	-1.9	2.429	-1.844	-1.68	-0.1273	2.193	1.728								
c1cc(-c2cnn3nc(N4CCOCC4)ccc23)nc(NC2CC2)n1 [SJ000573092-1, U17157/98/7]	1.021	4.896	12.47	-2.802	-0.2849	1.098	-4.251	16.51								
CS(=O)(=O)CCNCc1ccc(-c2ccc3ncnc(Nc4ccc(OCc5ccccc5)cc4)c3c2)o1 [SJ000573093-1, R1325/200/3]	6.213	-1.059	25.45	0.8735	1.417	1.913	1.449	19.4								
COC(=O)Nc1nc2ccc(S(=O)(=O)c3ccc(NC(=O)Nc4cc(C(F)(F)F)ccc4F)cc3)cc2[nH]1 [SJ000573094-1, T229/157/1]	3.593	1.083	1.464	3.097	9.928	-2.541	2.078	-0.02364								
CN(C)c1cc2c(Nc3ccc4nc(Cc5ccccc5)[nH]c4c3)ncnc2cn1 [SJ000573096-1, R142/81/1]	-6.495	-0.02909	19.45	0.4943	-0.8109	-0.4937	4.629	3.394								
Clc1ccc(-c2nn3ncccc3c2-c2ccnc(Nc3ccccc3)n2)cc1 [SJ000573097-1, U17838/189/2]	-1.226	-1.31	0.7466	3.744	6.42	-2.244	3.667	3.385								
Cc1ccc(NC(=O)CC2CC2)cc1-c1ccc(C(=O)NCC2CC2)cc1 [SJ000573098-1, R7387/20/3]	-0.8105	1.321	0.2753	1.599	2.428	-2.089	4.183	0.255								
CN(c1ccc(NC(=O)Nc2c(Cl)cccc2Cl)cc1)c1ccnc(Nc2cccc(CS(C)(=O)=O)c2)n1 [SJ000573099-1, U17983/31/1]	50.22	19.94	85.25	10.65	15.56	37.92	37.49	78.59								
CCc1nn2ncccc2c1-c1ccnc(NC2CC2)n1 [SJ000573100-1, U16767/17/1]	1.664	0.5788	5.368	3.597	0.1094	0.1681	-4.45	0.7749								
COc1cc2ncnc(Nc3ccc4c(cnn4Cc4ccccc4)c3)c2cc1OC [SJ000573101-1, R143/104/1]	1.834	6.042	25.02	32.19	5.092	-2.157	0.8373	12.83								
CCS(=O)(=O)c1ccc(OC)c(Nc2nccc(N(C)c3ccc4c(C)n[nH]c4c3)n2)c1 [SJ000573103-1, U20513/4/2]	2.221	1.879	9.892	9.95	5.806	-1.801	6.86	5.714								
